In PMC13505187, “Fragment-Based Discovery of Fenamic Acids as Pan-Species Inhibitors of the Soluble Epoxide Hydrolase Phosphatase Domain” (ACS Chemical Biology, 2026):

Columns and labels:
Format in all cases: biochemical
human sEH-NTD = molecular target: T1, human sEH-NTD (Homo sapiens, UniProt P34913); experiment: FDP-based phosphatase assay, isolated N-terminal domain; conditions: phosphatase activity of the isolated N-terminal domain, FDP substrate, pH 5.75; mean ± SD, n = 3
T1 construct: made in house
T1 sequence (P34913 1-224 limits assumed): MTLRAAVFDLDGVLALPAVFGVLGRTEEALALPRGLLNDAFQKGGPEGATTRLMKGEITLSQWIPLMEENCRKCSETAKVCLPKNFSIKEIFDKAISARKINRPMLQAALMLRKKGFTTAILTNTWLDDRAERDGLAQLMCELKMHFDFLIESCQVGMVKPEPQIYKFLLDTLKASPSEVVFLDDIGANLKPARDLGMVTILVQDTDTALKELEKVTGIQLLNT
Protocol: (§1) The FDP assay was performed as published previously by Klingler et al. using frozen sEH-PD as well as full-length human, mouse, and rat sEH. In brief, the assay was performed in a black 96-well microplate in which 1 μL of compound in DMSO (or DMSO only in the case of the positive control) was mixed with 89 μL of protein solution (final concentration of 0.1 μM for sEH-PD, full-length human sEH, and full-length rat sEH and 0.01 μM for full-length mouse sEH) in phosphatase assay buffer (50 mM acetate, 10 mM MgCl2, pH 5.75) supplemented with 0.01% w/v Triton X-100. For the blank, assay buffer without protein was used. The plates were incubated at rt for 30 min to allow binding of the inhibitor. To start the reaction, 10 μL of FDP solution (10 μM final concentration) in assay buffer was added, and the fluorescence changes (λex = 485 nm, λem = 525 nm) were detected at 30 time points over the duration of 30 min using an Infinite F200 PRO plate reader (Tecan, Crailsheim, Germany). All samples were measured in triplicate. The percent inhibition was calculated relative to the activities of the blank well (without protein) and positive control well (without inhibitor).

human sEH-FL (P) = molecular target: T2, human sEH-FL (P) (Homo sapiens, UniProt P34913); experiment: FDP-based phosphatase assay, full-length sEH; conditions: phosphatase activity of the full-length sEH protein, FDP substrate; mean ± SD, n = 3
T2 construct: The full-length human sEH was previously published by Lukin et al; made in house
T2 sequence (P34913 1-555): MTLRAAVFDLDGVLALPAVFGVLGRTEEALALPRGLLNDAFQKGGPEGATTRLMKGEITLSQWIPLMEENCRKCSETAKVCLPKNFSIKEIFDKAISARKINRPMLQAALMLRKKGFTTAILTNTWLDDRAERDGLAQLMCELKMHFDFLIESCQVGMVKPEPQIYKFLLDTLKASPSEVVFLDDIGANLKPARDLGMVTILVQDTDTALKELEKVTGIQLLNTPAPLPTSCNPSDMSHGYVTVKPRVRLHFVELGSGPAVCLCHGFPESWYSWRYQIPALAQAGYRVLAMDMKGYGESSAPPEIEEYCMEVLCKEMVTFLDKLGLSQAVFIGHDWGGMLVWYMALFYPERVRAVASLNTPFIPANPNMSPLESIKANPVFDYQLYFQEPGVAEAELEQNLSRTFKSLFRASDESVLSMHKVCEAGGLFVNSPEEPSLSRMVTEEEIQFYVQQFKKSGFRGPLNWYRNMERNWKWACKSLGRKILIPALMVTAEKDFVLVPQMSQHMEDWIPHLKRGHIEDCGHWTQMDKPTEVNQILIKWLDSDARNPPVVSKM
Protocol: as §1

rat sEH-FL (P) = molecular target: T3, rat sEH-FL (P) (Rattus norvegicus, UniProt P80299); experiment: FDP-based phosphatase assay, full-length sEH; conditions: phosphatase activity of the full-length sEH protein, FDP substrate; mean ± SD, n = 3
T3 construct: using frozen sEH-PD as well as full-length human, mouse, and rat sEH
T3 sequence (P80299 1-554): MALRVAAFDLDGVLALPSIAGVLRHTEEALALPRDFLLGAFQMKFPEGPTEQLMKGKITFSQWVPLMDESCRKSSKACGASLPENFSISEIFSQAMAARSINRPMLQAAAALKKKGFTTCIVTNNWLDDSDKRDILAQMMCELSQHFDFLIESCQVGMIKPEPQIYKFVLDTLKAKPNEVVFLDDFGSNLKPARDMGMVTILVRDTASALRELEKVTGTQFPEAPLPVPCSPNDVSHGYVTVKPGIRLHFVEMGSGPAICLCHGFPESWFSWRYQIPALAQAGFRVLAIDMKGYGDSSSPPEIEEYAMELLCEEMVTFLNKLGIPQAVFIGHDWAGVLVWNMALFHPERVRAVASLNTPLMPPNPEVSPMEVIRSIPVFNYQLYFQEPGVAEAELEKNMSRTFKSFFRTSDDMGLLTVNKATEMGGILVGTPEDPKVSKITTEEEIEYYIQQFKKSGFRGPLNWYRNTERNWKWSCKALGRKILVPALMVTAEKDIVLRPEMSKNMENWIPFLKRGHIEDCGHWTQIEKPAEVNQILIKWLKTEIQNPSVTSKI
Protocol: as §1

human sEH-FL (H) = molecular target: T4, human sEH-FL (H) (Homo sapiens, UniProt P34913); experiment: PHOME-based hydrolase assay, full-length sEH; conditions: hydrolase activity of the full-length sEH protein, PHOME substrate; mean ± SD, n = 3
T4 construct: The full-length human sEH was previously published by Lukin et al; made in house
T4 sequence (P34913 1-555): T2 sequence (P34913 1-555)
Protocol: The fluorescence-based sEH hydrolase activity assay was performed as described previously in a 96-well format with some minor modifications. In short, full-length sEH (3 nM final concentration for all tested proteins) was dissolved in hydrolase assay buffer (Bis-Tris buffer, pH 7) supplemented with 0.1 mg mL^–1 BSA as well as Triton-X 100 to a final concentration of 0.01%. Protein solution (89 μL) was incubated with 1 μL of different concentrations of compounds (final DMSO concentration 1%) for 30 min at rt. The reaction was started by addition of 10 μL of a cyano­(6-methoxy-2-naphthalenyl)­methyl 3-phenyloxiran-2-ylacetate (PHOME) solution (final concentration of 50 μM). Hydrolysis of the nonfluorescent substrate by sEH to release fluorescent 6-methoxynaphthaldehyde was measured (λex = 330 nm, λem = 465 nm) using a Tecan Infinite F200PRO plate reader. The reaction was monitored over a duration of 45 min (one point every minute). A blank control (no protein and no compound) and a positive control (no compound) were carried out as well. All measurements were performed in triplicate.

An IC50 (human sEH-NTD) of 0.058 ± 0.005 µM, an IC50 (human sEH-FL (P)) of 4 ± 1 µM and an IC50 (rat sEH-FL (P)) of 2.8 ± 2.2 µM were found for `O=C(O)CCCc1nc(-c2ccc(Cl)c(Cl)c2)c(-c2ccccc2)o1` [Compound 2] in this work. It also gave an IC50 (human sEH-FL (H)) of 9.5 ± 0.5 µM.
